# From patent US20060069132A1, “Azolecarboxamide herbicides” (priority 2004, published 2006)
# Experiments:
# [1] = system: velvetleaf; assay: Test B pre-/postemergence herbicide test; format: in vivo, Abutilon theophrasti; conditions: for Velvetleaf plant response rating: postemergence, visual rating, scale 0 (no effect) to 100 (complete control)
# Outline: (§1)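 Flooded paddy rice and barnyardgrass were treated at the 2-leaf stage; upland plantings received compound either on sown seed or on 1- to 4-leaf seedlings. All were kept 13–15 days in a greenhouse and scored visually, 0–100, relative to untreated plants.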
# [2] = system: ducksalad; assay: Test B flooded paddy test; format: in vivo, Heteranthera limosa; conditions: 1000 g ai/ha, visual rating, scale 0 to 100 (0 no effect, 100 complete control), 13 to 15 days
# Outline: (§2)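 Plants grow to 1- to 4-leaf stage (2–18 cm) for postemergence spraying, or to 2-leaf stage for the paddy test. Formulated compound is applied. Greenhouse holding lasts 13–15 days. Response is scored visually relative to controls, 0 no effect to 100 complete control; a dash means no result.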
# [3] = system: rice; assay: Test C flooded paddy test; format: in vivo, Oryza sativa
# Outline: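 Plants were grown to the 1- to 4-leaf stage (2–18 cm) and then treated postemergence, or grown to the 2-leaf stage for the flooded paddy test. They were held in a greenhouse for 12 to 14 days and then scored by eye against controls, where 0 is no effect and 100 is complete control.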
# [4] = system: rice; assay: Test B pre-/postemergence herbicide test; format: in vivo, Oryza sativa; conditions: preemergence
# Outline: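 Evaluation is visual, comparing treated with control plants on a scale where 0 means no effect and 100 means full control. Treatments were preemergence, or postemergence on seedlings 2–18 cm tall, and held 13–15 days in the greenhouse.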
# [5] = system: barnyardgrass; assay: Test B pre-/postemergence herbicide test; format: in vivo, Echinochloa crus-galli; conditions: for Barnyardgrass plant response rating: postemergence, visual rating, scale 0 (no effect) to 100 (complete control)
# Outline: (§3)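 Species tested were Echinochloa crus-galli, Ipomoea coccinea, Xanthium strumarium and Oryza sativa, treated both before emergence and at the 1- to 4-leaf stage; rice and barnyardgrass were also tested under flooding at 2 leaves. Greenhouse incubation lasted 13–15 days before visual 0–100 scoring.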
# [6] = system: rice; assay: Test B flooded paddy test; format: in vivo, Oryza sativa; conditions: 1000 g ai/ha, visual rating, scale 0 to 100 (0 no effect, 100 complete control), 13 to 15 days
# Outline: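 After treating 2-leaf paddy plants or 2–18 cm postemergence plants (1 to 4 leaves) with formulated chemical, researchers kept them in a greenhouse for 13–15 days. Effects were judged visually versus controls: 0 indicates none, 100 total control.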
# [7] = system: pigweed; assay: Test B pre-/postemergence herbicide test; format: in vivo, Amaranthus retroflexus; conditions: for Pigweed plant response rating: postemergence, visual rating, scale 0 (no effect) to 100 (complete control)
# Outline: as §1
# [8] = system: wheat; assay: Test B postemergence herbicide test; format: in vivo, Triticum aestivum; parameters: key to Wheat plant response rating: 0 = no effect, 100 = complete control; conditions: postemergence, visual rating, scale 0 (no effect) to 100 (complete control)
# Outline: (§4)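 Treated at 2-leaf (paddy) or 1–4-leaf, 2–18 cm (postemergence); greenhouse 13–15 d; visual score vs control, 0 none to 100 complete control; dash = not tested.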
# [9] = system: blackgrass; assay: Test B postemergence herbicide test; format: in vivo, Alopecurus myosuroides; conditions: postemergence, visual rating, scale 0 (no effect) to 100 (complete control)
# Outline: as §2
# [10] = system: barnyardgrass; assay: Test C flooded paddy test; format: in vivo, Echinochloa crus-galli
# Outline: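 After a postemergence application at 1 to 4 leaves (plants 2–18 cm high), or at 2 leaves for barnyardgrass in flooded paddy, plants stayed in the greenhouse for 12 to 14 days. Damage was then judged visually relative to control plants, with 100 indicating complete control.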
# [11] = system: giant foxtail; assay: Test B pre-/postemergence herbicide test; format: in vivo, Setaria faberi; conditions: for Foxtail, Giant plant response rating: postemergence, visual rating, scale 0 (no effect) to 100 (complete control)
# Outline: as §1
# [12] = system: lambsquarters; assay: Test B pre-/postemergence herbicide test; format: in vivo, Chenopodium album
# Outline: as §1
# [13] = system: wild oat; assay: Test B postemergence herbicide test; format: in vivo, Avena fatua; conditions: postemergence, visual rating, scale 0 (no effect) to 100 (complete control)
# Outline: as §4
# [14] = system: corn; assay: Test B pre-/postemergence herbicide test; format: in vivo, Zea mays; conditions: for Corn plant response rating: postemergence, visual rating, scale 0 (no effect) to 100 (complete control)
# Outline: as §1
# [15] = system: large crabgrass; assay: Test B pre-/postemergence herbicide test; format: in vivo, Digitaria sanguinalis; conditions: for Crabgrass, Large plant response rating: postemergence, visual rating, scale 0 (no effect) to 100 (complete control)
# Outline: as §1
# [16] = system: morningglory; assay: Test B pre-/postemergence herbicide test; format: in vivo, Ipomoea coccinea; conditions: for Morningglory plant response rating: postemergence, visual rating, scale 0 (no effect) to 100 (complete control)
# Outline: as §3
# [17] = system: barnyardgrass; assay: Test B flooded paddy test; format: in vivo, Echinochloa crus-galli; conditions: 1000 g ai/ha, visual rating, scale 0 to 100 (0 no effect, 100 complete control), 13 to 15 days
# Outline: as §2
# [18] = system: ducksalad; assay: Test C flooded paddy test; format: in vivo, Heteranthera limosa
# [19] = system: Surinam grass; assay: Test B pre-/postemergence herbicide test; format: in vivo, Urochloa decumbens; conditions: for Surinam Grass plant response rating: postemergence, visual rating, scale 0 (no effect) to 100 (complete control)
# Outline: as §1
# [20] = system: small flower umbrella sedge; assay: Test B flooded paddy test; format: in vivo, Cyperus difformis; conditions: 1000 g ai/ha, visual rating, scale 0 to 100 (0 no effect, 100 complete control), 13 to 15 days
# Outline: as §2
# [21] = system: cocklebur; assay: Test B pre-/postemergence herbicide test; format: in vivo, Xanthium strumarium; conditions: for Cocklebur plant response rating: postemergence, visual rating, scale 0 (no effect) to 100 (complete control)
# Outline: as §3
# [22] = system: smallflower umbrella sedge; assay: Test C flooded paddy test; format: in vivo, Cyperus difformis
# [23] = 125 g ai/ha, 0 = no effect, 100 = complete control, preemergence
# [24] = 500 g ai/ha, visual rating 0-100, 0 no effect, 100 complete control, preemergence
# [25] = 62 g ai/ha, scale 0 to 100 (0 no effect, 100 complete control)
# [26] = 125 g ai/ha, scale 0 to 100 (0 no effect, 100 complete control)
# [27] = 250 g ai/ha, scale of 0 to 100, 0 is no effect, 100 is complete control
# [28] = 500 g ai/ha, visual rating after 12 to 14 days, scale 0 to 100 (0 no effect, 100 complete control)
smiles,measurement,setting,value
CCc1nn(C(C)(C)C)cc1C(=O)Nc1cc(C(=O)NC)ccc1F [Compound 194],Velvetleaf plant response rating (0 to 100 scale),[1]; [23],20
same,"Plant response rating, Velvetleaf",[1]; [24],60
same,Velvetleaf plant response rating,[1]; 125 g ai/ha,10
same,Velvetleaf plant response rating,[1]; 500 g ai/ha,10
same,Ducksalad plant response rating,[2],90
same,Rice plant response rating,[3]; [25],0
same,Rice plant response rating,[3]; [26],25
same,Rice plant response rating,[3]; [27],25
same,"Plant response rating, Rice",[3]; [28],45
same,Rice plant response rating (0 to 100 scale),"[4]; 125 g ai/ha, 0 = no effect, 100 = complete control",0
same,"Plant response rating, Rice","[4]; 500 g ai/ha, visual rating 0-100, 0 no effect, 100 complete control",70
same,Barnyardgrass plant response rating (0 to 100 scale),[5]; [23],0
same,"Plant response rating, Barnyardgrass",[5]; [24],90
same,Barnyardgrass plant response rating,[5]; 125 g ai/ha,0
same,Barnyardgrass plant response rating,[5]; 500 g ai/ha,10
same,Rice plant response rating,[6],60
same,Pigweed plant response rating (0 to 100 scale),[7]; [23],0
same,"Plant response rating, Pigweed",[7]; [24],100
same,Pigweed plant response rating,[7]; 125 g ai/ha,20
same,Pigweed plant response rating,[7]; 500 g ai/ha,30
same,Wheat plant response rating,[8]; 125 g ai/ha,0
same,Wheat plant response rating,[8]; 500 g ai/ha,0
same,Blackgrass plant response rating,[9]; 125 g ai/ha,0
same,Blackgrass plant response rating,[9]; 500 g ai/ha,0
same,Barnyardgrass plant response rating,[10]; [25],0
same,Barnyardgrass plant response rating,[10]; [26],0
same,Barnyardgrass plant response rating,[10]; [27],0
same,"Plant response rating, Barnyardgrass",[10]; [28],25
same,"Foxtail, Giant plant response rating (0 to 100 scale)",[11]; [23],10
same,"Plant response rating, Foxtail, Giant",[11]; [24],80
same,"Foxtail, Giant plant response rating",[11]; 125 g ai/ha,0
same,"Foxtail, Giant plant response rating",[11]; 500 g ai/ha,0
same,Lambsquarters plant response rating (0 to 100 scale),[12]; [23],30
same,Lambsquarters plant response rating,"[12]; postemergence, 500 g ai/ha, visual rating, scale 0 (no effect) to 100 (complete control)",30
same,"Oat, Wild plant response rating",[13]; 125 g ai/ha,0
same,"Oat, Wild plant response rating",[13]; 500 g ai/ha,0
same,Corn plant response rating (0 to 100 scale),[14]; [23],0
same,"Plant response rating, Corn",[14]; [24],50
same,Corn plant response rating,[14]; 125 g ai/ha,0
same,Corn plant response rating,[14]; 500 g ai/ha,0
same,"Crabgrass, Large plant response rating (0 to 100 scale)",[15]; [23],100
same,"Plant response rating, Crabgrass, Large",[15]; [24],100
same,"Crabgrass, Large plant response rating",[15]; 125 g ai/ha,10
same,"Crabgrass, Large plant response rating",[15]; 500 g ai/ha,10
same,Morningglory plant response rating (0 to 100 scale),[16]; [23],20
same,"Plant response rating, Morningglory",[16]; [24],50
same,Morningglory plant response rating,[16]; 125 g ai/ha,10
same,Morningglory plant response rating,[16]; 500 g ai/ha,10
same,Barnyardgrass plant response rating,[17],50
same,Ducksalad plant response rating,[18]; [25],0
same,Ducksalad plant response rating,[18]; [26],0
same,Ducksalad plant response rating,[18]; [27],0
same,"Plant response rating, Ducksalad",[18]; [28],40
same,Surinam Grass plant response rating (0 to 100 scale),[19]; [23],0
same,"Plant response rating, Surinam Grass",[19]; [24],60
same,Surinam Grass plant response rating,[19]; 125 g ai/ha,10
same,Surinam Grass plant response rating,[19]; 500 g ai/ha,10
same,"Sedge, Umbrella plant response rating",[20],80
same,Cocklebur plant response rating (0 to 100 scale),[21]; [23],0
same,"Plant response rating, Cocklebur",[21]; [24],20
same,Cocklebur plant response rating,[21]; 125 g ai/ha,10
same,Cocklebur plant response rating,[21]; 500 g ai/ha,10
same,"Sedge, Umbrella plant response rating",[22]; [25],0
same,"Sedge, Umbrella plant response rating",[22]; [26],0
same,"Sedge, Umbrella plant response rating",[22]; [27],35
same,"Plant response rating, Sedge, Umbrella",[22]; [28],75
